Source: patent US20240100065A1, “METHODS FOR TREATING RECEPTOR-INTERACTING PROTEIN KINASE 1-MEDIATED DISEASES” (Genzyme Corporation, priority 2022, published 2024)
“Also recorded” adds a separate entry of the source.

Assay: Plasma pharmacokinetics after single and repeated oral doses
Assay type: in vivo, healthy adult participants (human)
Conditions: for AUC ratio, point estimate / AUClast ratio, point estimate / Cmax ratio, point estimate: Part 1a fasted
Procedure: In Part 1a, plasma samples were collected before dosing and at 10 post-dose timepoints on Day 1 (30 minutes, 1 hour, followed by every hour until 6 hours, and then every 2 hours until 12 hours), and single samples on Day 2 (at 24 hours) and Day 3 (at 48 hours). In Part 1b, timepoints included at least pre-dose and at 10 post-dose timepoints, including plasma sampling at the same time of CSF sampling. In Part 2, on Day 1 and Day 14, plasma samples were collected at pre-dose and at 10 to 11 post-dose timepoints. In addition, plasma samples were collected on Days 2, 3, 5, 7, 11, 15, 16, and 17.
PK population included all participants exposed to Compound 1 with no major or critical deviations related to Compound 1 and for whom PK data were considered sufficient and interpretable. PK parameters were summarized by descriptive statistics for each dose level group. Distribution of Tmax values was represented by histogram plots for each dose level group. In Part 1a, dose proportionality was assessed using a linear model on Cmax, AUClast and AUC. In Part 2, all PK analyses were performed separately for each regimen (OD and BID). Steady state was assessed on Ctrough using a non-linear model. Accumulation was assessed using a linear model on log-transformed accumulation ratio. Dose proportionality was assessed using a power model on Cmax and AUCtau on Day 1 and Day 14, separately. Variance components of log-transformed Cmax and AUCtau were estimated using a linear model. In Part 1b, CSF concentration was described by dose level group and CSF to plasma unbound concentration ratios calculated were described in the same way. 4β-hydroxycholesterol on Day 14 versus Day 1 pre-dose concentration ratios were summarized using descriptive statistics by dose level group and point estimates with 90% confidence interval (90% CI) for the geometric mean of the log-transformed Day14/Day1 ratio was calculated in Part 2.

[1] = 20 mg vs. 10 mg (dose increase = 2)
[2] = 30 mg vs. 10 mg (dose increase = 3)
[3] = 30 mg vs. 20 mg (dose increase = 1.5)
[4] = 40 mg vs. 10 mg (dose increase = 4)
[5] = 40 mg vs. 20 mg (dose increase = 2)
[6] = 40 mg vs. 30 mg (dose increase = 1.33)

In the case of CC(C)(C(=O)N1CCOc2c(C#N)cncc2C1)C(F)F [Compound 1, 4-(3,3-difluoro-2,2-dimethyl-propanoyl)-3,5-dihydro-2H-pyrido[3,4-f] [1,4]oxazepine-9-carbonitrile], the “Accumulation ratio (AUC0-24h), Day 14/Day 1” value (10 mg QD) is reported as 1.31, the “Accumulation ratio (Cmax), Day 14/Day 1” value (10 mg QD) is reported as 1.00 and the “Accumulation ratio (AUC0-12h), Day 14/Day 1” value (15 mg BID) is reported as 1.45. For the same molecule, the “Accumulation ratio (Cmax), Day 14/Day 1” value (15 mg BID) was 1.24, the “Accumulation ratio (AUC0-12h), Day 14/Day 1” value (20 mg BID) was 1.63 and the “Accumulation ratio (Cmax), Day 14/Day 1” value (20 mg BID) was 1.71. The “Accumulation ratio (AUC0-24h), Day 14/Day 1” value (20 mg QD) was 1.13, the “Accumulation ratio (Cmax), Day 14/Day 1” value (20 mg QD) was 1.06 and the Cmax (20 mg QD, MAD study, read-out: Mean observed Cmax at steady state) was 860 nM. For the same molecule, the “Within-subject variability for AUCtau” value (BID cohorts) was 11.3%, the “Within-subject variability for Cmax” value (BID cohorts) was 17.9% and the “Total variability for AUCtau” value (BID dosing regimen) was 28.4%. For the same molecule, the “Total variability for Cmax” value (BID dosing regimen) was 32.2%, the “Dose proportionality: AUC0-24h (AUCtau) ratio for dose ratio (r) = 2” value (Day 14, 10 and 20 mg QD) was 1.51 and the “Dose proportionality: Cmax ratio for dose ratio (r) = 2” value (Day 14, 10 and 20 mg QD) was 1.58. The “Dose proportionality: AUC0-12h (AUCtau) ratio for dose ratio (r) = 1.3333” value (Day 14, 15 and 20 mg BID) was 1.32, the “Dose proportionality: Cmax ratio for dose ratio (r) = 1.3333” value (Day 14, 15 and 20 mg BID) was 1.31 and the “AUC ratio, point estimate” value [1] was 2.07. For the same molecule, the “AUClast ratio, point estimate” value [1] was 2.11, the “Cmax ratio, point estimate” value [1] was 2.08 and the “AUC ratio, point estimate” value [2] was 2.09. For the same molecule, the “AUClast ratio, point estimate” value [2] was 2.16, the “Cmax ratio, point estimate” value [2] was 3.60 and the “AUC ratio, point estimate” value [3] was 1.01. For the same molecule, the “AUClast ratio, point estimate” value [3] was 1.02, the “Cmax ratio, point estimate” value [3] was 1.73 and the “AUC ratio, point estimate” value [4] was 4.43. The “AUClast ratio, point estimate” value [4] was 4.56, the “Cmax ratio, point estimate” value [4] was 4.79 and the “AUC ratio, point estimate” value [5] was 2.15. The “AUClast ratio, point estimate” value [5] was 2.16, the “Cmax ratio, point estimate” value [5] was 2.31 and the “AUC ratio, point estimate” value [6] was 2.12. The “AUClast ratio, point estimate” value [6] was 2.11, the “Cmax ratio, point estimate” value [6] was 1.33 and the “AUC, GM” value (Part 1a single 10 mg fasted) was 1170 ng·h/mL. The “CL/F, GM” value (Part 1a single 10 mg fasted) was 8.56 L/h, the “CL/F, mean” value (Part 1a single 10 mg fasted) was 9.11 L/h and the “Cmax, GM” value (Part 1a single 10 mg fasted) was 116 ng/mL. For the same molecule, the “T1/2z, GM” value (Part 1a single 10 mg fasted) was 7.97 h, the “T1/2z, mean” value (Part 1a single 10 mg fasted) was 8.22 h and the “Tlast, median” value (Part 1a single 10 mg fasted) was 48.0 h. The “Tmax, median” value (Part 1a single 10 mg fasted) was 1.02 h, the “AUC, GM” value (Part 1a single 20 mg fasted) was 2410 ng·h/mL and the “AUC, mean” value (Part 1a single 20 mg fasted) was 2450 ng·h/mL. The “AUClast, GM” value (Part 1a single 20 mg fasted) was 2360 ng·h/mL, the “AUClast, mean” value (Part 1a single 20 mg fasted) was 2400 ng·h/mL and the “CL/F, GM” value (Part 1a single 20 mg fasted) was 8.28 L/h. The “CL/F, mean” value (Part 1a single 20 mg fasted) was 8.43 L/h, the “Cmax, GM” value (Part 1a single 20 mg fasted) was 241 ng/mL and the “T1/2z, GM” value (Part 1a single 20 mg fasted) was 7.48 h. The “T1/2z, mean” value (Part 1a single 20 mg fasted) was 7.63 h, the “Tlast, median” value (Part 1a single 20 mg fasted) was 48.0 h and the “Tmax, median” value (Part 1a single 20 mg fasted) was 1.50 h. The “AUC, GM” value (Part 1a single 30 mg fasted) was 2440 ng·h/mL, the “AUClast, GM” value (Part 1a single 30 mg fasted) was 2420 ng·h/mL and the “CL/F, GM” value (Part 1a single 30 mg fasted) was 12.3 L/h. For the same molecule, the “CL/F, mean” value (Part 1a single 30 mg fasted) was 13.1 L/h, the “Cmax, GM” value (Part 1a single 30 mg fasted) was 417 ng/mL and the “T1/2z, GM” value (Part 1a single 30 mg fasted) was 5.70 h. The “T1/2z, mean” value (Part 1a single 30 mg fasted) was 5.99 h, the “Tlast, median” value (Part 1a single 30 mg fasted) was 48.0 h and the “Tmax, median” value (Part 1a single 30 mg fasted) was 1.00 h. The “AUC, GM” value (Part 1a single 40 mg fasted) was 5180 ng·h/mL, the “AUClast, GM” value (Part 1a single 40 mg fasted) was 5120 ng·h/mL and the “CL/F, GM” value (Part 1a single 40 mg fasted) was 7.72 L/h. The “CL/F, mean” value (Part 1a single 40 mg fasted) was 8.15 L/h, the “Cmax, GM” value (Part 1a single 40 mg fasted) was 555 ng/mL and the “T1/2z, GM” value (Part 1a single 40 mg fasted) was 6.29 h. For the same molecule, the “T1/2z, mean” value (Part 1a single 40 mg fasted) was 6.40 h, the “Tlast, median” value (Part 1a single 40 mg fasted) was 48.0 h and the “Tmax, median” value (Part 1a single 40 mg fasted) was 1.50 h. For the same molecule, the “Dose proportionality of exposures” value (Part 1a, between 10 and 40 mg) was “no major deviation from dose proportionality; also recorded: increased according to dose proportionality”, the “AUC, GM” value (Part 1b single 10 mg fed) was 1370 ng·h/mL and the “AUClast, GM” value (Part 1b single 10 mg fed) was 1170 ng·h/mL. For the same molecule, the “CL/F, GM” value (Part 1b single 10 mg fed) was 7.27 L/h, the “CL/F, mean” value (Part 1b single 10 mg fed) was 7.63 L/h and the “Cmax, GM” value (Part 1b single 10 mg fed) was 111 ng/mL. For the same molecule, the “Cmax, mean” value (Part 1b single 10 mg fed) was 115 ng/mL, the “T1/2z, GM” value (Part 1b single 10 mg fed) was 7.97 h and the “T1/2z, mean” value (Part 1b single 10 mg fed) was 8.09 h. For the same molecule, the “Tlast, median” value (Part 1b single 10 mg fed) was 24.0 h, the “Tmax, median” value (Part 1b single 10 mg fed) was 4.24 h and the “AUC, GM” value (Part 1b single 40 mg fed) was 4740 ng·h/mL. The “AUClast, GM” value (Part 1b single 40 mg fed) was 3960 ng·h/mL, the “CL/F, GM” value (Part 1b single 40 mg fed) was 8.43 L/h and the “CL/F, mean” value (Part 1b single 40 mg fed) was 8.92 L/h. For the same molecule, the “Cmax, GM” value (Part 1b single 40 mg fed) was 374 ng/mL, the “T1/2z, GM” value (Part 1b single 40 mg fed) was 8.03 h and the “T1/2z, mean” value (Part 1b single 40 mg fed) was 8.31 h. The “Tlast, median” value (Part 1b single 40 mg fed) was 24.0 h, the “Tmax, median” value (Part 1b single 40 mg fed) was 4.5 h and the “Mean T1/2z across doses and regimens” value (Part 2, Day 14) was 7.3 to 9.1 h. For the same molecule, the “Median time to steady state of plasma concentrations” value (Part 2, after first administration, irrespective of dose or regimen) was 1.4 to 2 days.
